Molecular target: T1, GH32 β-D-fructofuranosidase BBDE_1523 (Bifidobacterium dentium, UniProt D2Q5I2)
T1 construct: gene fosC; cloned and expressed as BpDFA-IIIase (pET23a, C-terminal His-tag, E. coli BL21(DE3), TALON)
T1 sequence (D2Q5I2 1-518): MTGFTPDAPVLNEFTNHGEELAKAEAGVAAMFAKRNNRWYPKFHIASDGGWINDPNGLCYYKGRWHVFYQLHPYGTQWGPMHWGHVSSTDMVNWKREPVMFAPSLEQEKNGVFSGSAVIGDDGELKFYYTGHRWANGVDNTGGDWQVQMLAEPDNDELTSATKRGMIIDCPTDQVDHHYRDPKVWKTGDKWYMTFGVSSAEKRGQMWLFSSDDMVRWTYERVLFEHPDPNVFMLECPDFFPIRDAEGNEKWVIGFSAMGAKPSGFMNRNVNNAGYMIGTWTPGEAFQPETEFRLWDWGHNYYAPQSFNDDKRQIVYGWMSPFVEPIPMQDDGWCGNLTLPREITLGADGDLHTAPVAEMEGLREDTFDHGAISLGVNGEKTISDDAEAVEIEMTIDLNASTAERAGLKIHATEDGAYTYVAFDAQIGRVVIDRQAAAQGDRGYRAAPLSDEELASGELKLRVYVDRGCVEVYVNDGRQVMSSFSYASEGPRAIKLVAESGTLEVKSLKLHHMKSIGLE
Test: TLC and HPAEC-PAD
Assay type: biochemical
Details: 50 mM acetate pH 6.0, 37 °C, overnight; together with BpDFA-IIIase

## OC[C@H]1O[C@@](CO)(OCC2(O)OC[C@@H](O)[C@@H](O)[C@@H]2O)[C@@H](O)[C@@H]1O (stereo partly shown) [inulobiose]
  TLC and HPAEC-PAD: DFA-III was completely hydrolyzed into D-fructose via inulobiose
